Results reported in patent publication US5296597A, “Amide derivatives of Partricin A & Partricin B” (SPA Societa' Prodotti Antibiotici S.P.A., priority 1989, dated 1994).
Values after ≈ are worked out from the molar mass of the structure shown. Like-named read-outs stand apart in the source and are kept apart here.

How the values were obtained:
rat erythrocytes = experiment: hemolytic power on rat erythrocytes; assay type: cell-based; settings: for hemolytic activity, times less than unreacted partricins: relative to unreacted partricins; for EC (concentration that causes hemoglobin liberation of 50% of the total amount): rat erythrocytes, 2% suspension in BSA Ringer, 1 hour at 36, average of 2-5 experiments
Experimental: A further important evaluation parameter was the helomytic power: rat erytrocytes were suspended at a 2% concentration in Ringer solution containing 0.2% of bovine serum albumin, fraction V (BSA) and incubated for 1 hour at 36° C. in the presence of various amounts of the amides being investigated.

Candida albicans = experiment: antimycotic activity, minimum inhibitory concentration (MIC) on Candida albicans, liquid and solid medium; assay type: cell-based; settings: candida albicans n. 37, 24 hours, average of 2-5 experiments
Experimental: (b) Sabouraud fluid medium, 24 hours at
(c) Sabouraud fluid medium + agar, 24 hours at […]

Trichomonas vaginalis = experiment: antiprotozoal activity, MIC on Trichomonas vaginalis; assay type: cell-based; settings: T. vaginalis n. 6; CPLM culture medium, 72 hours; average of 2-5 experiments
Saccharomyces cerevisiae = experiment: growth inhibition of Saccharomyces cerevisiae culture (turbidimetric); assay type: cell-based; settings: S. cerevisiae n. 167; PYG culture medium, 6 hours at 36; average of 2-5 experiments
[1] = background statement, in words; cited from earlier work
[2] = background statement, in words; cited from earlier work; remark: listed apart in the source
[3] = test system: yeasts, such as Candida albicans; settings: background statement, in words; cited from earlier work
water solubility and pH = assay type: physicochemical
[4] = Sabouraud fluid medium + agar (solid)

Compound	MIC (Candida albicans; [4]) [ng/mL]	MIC (Candida albicans; Sabouraud fluid medium) [ng/mL]	MIC (Trichomonas vaginalis) [ng/mL]	IC50 (Saccharomyces cerevisiae) [ng/mL]	EC (concentration that causes hemoglobin liberation of 50% of the total amount) (rat erythrocytes) [µg/mL]	also measured
2-dimethylaminoethyl amide						hemolytic activity, times less than unreacted partricins (rat erythrocytes): 25-80 times less
3-dimethylaminopropyl amide						hemolytic activity, times less than unreacted partricins (rat erythrocytes): 25-80 times less
CC1/C=C/C=C/C=C/C=C/C=C/C=C/C=C/C(O[C@H]2O[C@@H](C)[C@H](O)[C@@H](N)[C@H]2O)CC2OC(O)(CC(O)CC(O)CC(O)CC(O)CC(=O)CC(O)CC(=O)OC1C(C)CCC(O)CC(=O)c1ccc(N)cc1)CC(O)C2C(=O)O (stereo partly drawn) [Partricin B (P.B), reference compound]	40	40 (≈ 0.0359 µM)	250 (≈ 0.225 µM)	5 (≈ 0.00449 µM)		
COC(=O)C1C(O)CC2(O)CC(O)CC(O)C(O)CCC(O)CC(O)CC(=O)OC(C)C(C)C(O)C(C)C=CC=CC=CC=CC=CC=CC=CC(OC3OC(C)C(O)C(N)C3O)CC1O2 (stereo not drawn) [amphotericin B methyl ester]						toxicity [1]: severe neurotoxic effects
Partricin 3-dimethylaminopropyl amide [P. 3-dimethyl-aminopropyl amide]	16	10	500	1	17	
Partricin A 3-dimethylaminopropyl amide [P.A 3-dimethyl-aminopropyl amide]	8	3	500	0.5	20	
Partricin A N'-methyl-piperazide [P.A N'-methyl-piperazide]	4	1	500	0.4		
Partricin A allyl amide [P.A allyl amide]	10	6	250	0.8		
Partricin A ethyl amide [P.A ethyl amide]	10	9	500	1		
Partricin A n-pentyl amide [P.A n-penthyl amide]	80	20	2000	3		
Partricin A n-propyl amide [P.A n-propyl amide]	16	8	500	1		
Partricin B 2-dimethylaminoethyl amide [P.B 2-dimethyl-aminoethyl-amide]	10	3	500	1		
Partricin B methyl amide [P.B methyl amide]	8	7	250	1		
Partricin methyl amide [P. methy amide]	7	5	250	1	7.5	
Partricin n-dodecyl amide [P. n-dodecyl amide]	800	450	> 10000	50	> 32	
mepartricin						water solubility [2]: insufficient water solubility; action selectivity [1]: greater action selectivity; toxicity [1]: reduced toxicity, but still exhibits marked toxic effects; antimycotic activity [3]: increased antimycotic activity
methyl amide						hemolytic activity, times less than unreacted partricins (rat erythrocytes): 25-80 times less
partricin A 2-dimethylaminoethyl amide diaspartate						water solubility (water solubility and pH; in words): water-soluble; pH (reaction of the salt) (water solubility and pH; slightly acidic reaction): ~5
partricin A 2-dimethylaminoethylamide [P.A 2-dimethyl-aminoethyl amide]	8	2	500	0.4	25	
partricin A methyl amide [P.A methyl amide]	8	5	250	0.7	8	
